Measured values reported in EP4563579A1, “MACROCYCLIC EGFR INHIBITOR, AND PREPARATION METHOD THEREFOR AND PHARMACEUTICAL USE THEREOF” (Abbisko Therapeutics Co., Ltd., priority 2022, dated 2024).

Tests used:
[1] = Pharmacokinetic experiment in mice; format: in vivo; details: male, mouse; ICR mice, single oral administration (PO), 10 mg/kg, plasma
Source text: The purpose of this trial is to study the pharmacokinetic behavior of some compounds of the present invention, and the administration method is: Single oral administration (PO) to ICR mice.
The compounds used in this trial are from the compounds in the specific examples of the present invention and the listed positive compounds.
ICR mice male N=9 original source: Shanghai Sippr-Bk Lab Animal Co., Ltd.
The compounds are weighed and dissolved in the corresponding solution (10% PG + 10% Solutol® + 80% pH3 citrate buffer). The mixture is then shaken well and sonicated to prepare a 1 mg/mL stock solution. Nine mice are orally administered at a dose of 10 mg/kg (or IV 2 mg/kg) after an overnight fast.
About 90 µL of blood is collected via the submandibular vein per time point, heparin sodium anticoagulant is added, the sample is placed on ice after collection, and plasma is centrifuged within 1 hour (centrifugation conditions: 8,000 rpm, 6 minutes, 2-8°C). The blood collection timepoints are 0, 0.25, 0.5, 1, 2, 4, 6, 8 and 24 h. The samples are stored in a -20°C refrigerator.
The plasma sample is 40 µL, 160 µL of ice-cold acetonitrile containing internal standard is added, vortexed for 3 minutes, and centrifuged at 11,000 rpm for 5 minutes. 100 µL of the supernatant is taken and added to 100 µL of water, 5 µL of the sample is taken and injected into LC/MS/MS for analysis.

[2] = tested on: Ba/F3 EGFR-L858R-T790M-C797S (LTC); assay: Cell proliferation assay (CellTiter-Glo), Ba/F3 LTC; format: cell-based; details: Mus musculus, BaF3; Ba/F3 EGFR-L858R-T790M-C797S cells, 72 hour incubation, CTG readout
In short: (§1)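 Cells seeded overnight, then exposed 72 h at 37 °C, 5% CO2 to nine 3.16-fold dilutions (top final 10 µM, 0.1% DMSO), triplicate wells. Viability read by CellTiter-Glo luminescence, with a T0 plate read at dosing; IC50 (nM) by non-linear sigmoidal regression.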

[3] = tested on: Ba/F3 EGFR-DEL19-C797S (DC); assay: Cell proliferation assay (CellTiter-Glo), Ba/F3 DC; format: cell-based; details: Mus musculus, BaF3; Ba/F3 EGFR-DEL19-C797S cells, 72 hour incubation, CTG readout
In short: as §1

[4] = tested on: Ba/F3 EGFR-DEL19-T790M-C797S (DTC); assay: Cell proliferation assay (CellTiter-Glo), Ba/F3 DTC; format: cell-based; details: Ba/F3 EGFR-DEL19-T790M-C797S cells, 72 hour incubation, CTG readout; read-out: IC50 BaF3 DTC
In short: as §1

[5] = tested on: Ba/F3 EGFR-L858R-C797S (LC); assay: Cell proliferation assay (CellTiter-Glo), Ba/F3 LC; format: cell-based; details: Mus musculus, BaF3; Ba/F3 EGFR-L858R-C797S cells, 72 hour incubation, CTG readout
In short: as §1

A431 WT = assay: Cell proliferation assay (CellTiter-Glo), A431 WT; format: cell-based; details: Homo sapiens, A-431; A431 WT cells, 72 hour incubation, CTG readout
In short: as §1

AUC(0-t) [1] [ng·h/mL]	Cmax [1] [ng/mL]	half-life [1] [h]	IC50 [2] [nM]	IC50 [3] [nM]	IC50 [4] [nM]	IC50 [5] [nM]	IC50 (A431 WT) [nM]	Structure (SMILES)
6080	1560	3	0.8	2.3	1.5	2.1	446	CC(C)S(=O)(=O)C[C@H]1CCN(c2nn3c4cc(ncc24)Nc2ccnc(n2)-c2cnn(C)c2OCC2(CCCC2)C3)C1 [Example 39, (S)-3'-(3-((isopropylsulfonyl)methyl)pyrrolidin-1-yl)-1' -methylspiro(cyclopentane-1,6'-8-oxa-3-aza-4(6,1)-pyrazolo[4,3-c]pyridina-2(2,4)-pyrimidina-1(4,5)-pyrazolacyclooctaphane)]
7110	1920	2.3	3.1	15.9	5.2	12.9	564	Cn1ncc2c1OCC1(CCCCC1)Cn1nc(N3CC[C@H](CS(=O)(=O)C4CC4)C3)c3cnc(cc31)Nc1ccnc-2n1 [Example 41, (S)-3'-(3-((cyclopropylsulfonyl)methyl)pyrrolidin-1-yl)-1'-methylspiro(cyclohexane-1,6'-8-oxa-3-aza-4(6,1)-pyrazolo[4,3-c]pyridina-2(2,4) -pyrimidina-1(4,5)-pyrazolacyclooctaphane)]
4290	1060	3	1.2	3.5	2.3	1.9	593	CCCS(=O)(=O)C[C@H]1CCN(c2nn3c4cc(ncc24)Nc2ccnc(n2)-c2cnn(C)c2OCC2(CCCC2)C3)C1 [Example 42, (S)-3'-(3-((propylsulfonyl)methyl)pyrrolidin-1-yl)-1'-methylspiro(cyclopentane-1 ,6'-8-oxa-3-aza-4(6,1)-pyrazolo[4,3-c]pyridina-2(2,4)-pyrimidina-1(4,5)-pyrazolacyclooctaphane)]
2690	596	2.8	9	15	10.1	17.6	424	COC(=O)N[C@@H]1CCN(c2nn3c4cc(ncc24)Nc2ccnc(n2)-c2cnn(C)c2OCC2(CCCC2)C3)C1 [Example 51, Methyl (R)-(1-(1'-methylspiro(cyclopentane-1,6'-8-oxa-3-aza-4 (6,1)-pyrazolo[4,3-c]pyridina-2(2,4)-pyrimidina-1(4,5)-pyrazolacyclooctaphane)-3'-yl)pyrrolidin-3-yl)carbamate]
1730	412	1.3	12	12.1	8.7	31.6	654	Cn1ncc2c1OCC1(CCCC1)Cn1nc(N3CC[C@H](NC(=O)C4CC4)C3)c3cnc(cc31)Nc1ccnc-2n1 [Example 54, (S)-N-(1-(1'-methylspiro(cyclopentane-1,6'-8-oxa-3-aza-4(6,1)-pyrazolo[4,3-c]pyridina-2(2,4)-pyrimidina-1(4,5) -pyrazolacyclooctaphane)-3' -yl)pyrrolidin-3-yl)cyclopropanecarboxamide]
204	32.7	4.8	8	4.9	4.2	11.5	450	C[C@H]1CCOc2c(cnn2C)-c2nccc(n2)Nc2cc3c(cn2)c(-c2ccc(CN4CCN(C)CC4)n2C)nn31 [Positive Compoun d, reference compound]
